Laboratory results as given in patent US20260364101A1, “OLEUROPEIN IN THE MANAGEMENT OF CANCER” (FUNDACIÓN MIGUEL SERVET, priority 2023, published 2026).

Experiments:
[1] = test system: MDSCs; assay: ex vivo differentiated MDSCs treated with compound, marker expression by flow cytometry (FIG. 1a); assay type: cell-based, mouse; settings: oleuropein 50 μM
Method: (§1) Immunosuppressive myeloid cell subsets resembling tumor-infiltrating subsets (g-MDSCs, m-MDSCs and TAMs) were differentiated from mouse bone marrow following published procedures using conditioning medium produced by LLC tumor cells stably expressing GMCSF and MCSF cells. g- and m-MDSCs were purified using the myeloid-derived suppressor cell isolation kit (Miltenyi Biotec, Bergisch, Germany) according to manufacturer's recommendations. MDSCs and TAMs were seeded with 500 nM BML-275 or 50 μM oleuropein and incubated for seven days.
(§2) Surface and intracellular staining were carried out as described before with the following fluorochrome-conjugated antibody clones: AF488 anti-CD49d (R1-2), PE anti-CD4 (GK1.5), APCanti-CD8(53-6.7), brilliant Violet 510™ anti-I-A/I-E (M5/114.15.2,PE/Cyanine7anti-Ly-6G (1A8), and APC anti-CD80 (16-10A1) (Biolegend), FITC anti-IL-12 (C15.6) and BV421 anti-IL-2 (JES6-5H4) (BD Bioscience), APC-Vio® 770 anti-Ly-6C (REA796), PE REAfinity™ anti-F4/80 (REA126), and APC anti-CD68 (REA886) (Miltenyi), PerCP-Cyanine5.5 Anti-Human/Mouse CD11b (M1/70) (Tonbo), and AF488 anti-IFNγ (Clone XMG1.2) (BD Pharmigen). For human cells, it was used the following fluorochrome-conjugated antibodies: PerCP-Cy5.5-anti-CD11b (integrina alfa M) (M1/70), Violet Fluor 450 anti-CD14 antibody (61D3) (Tonbo), PE anti-CD115 (CSF-1R) (9-4D2-1E4) (Biolegend), PE-Cy™7 anti-CD11c (Clone B-ly6) (BD Bioscience), and APC anti-HLA-DR (REA517) (Miltenyi).
(§3) Data were collected using the FACSCanto Flow Cytometer (BD Biosciences) for ex vivo and in vitro experiments at Navarrabiomed Biomedical Research Center and Cyroflex LX flow cytometer (Beckman Counter). Data were analyzed with Flowjo.

[2] = test system: g-MDSC; assay: quantitative proteomics and Ingenuity Pathway Analysis of g-MDSC; assay type: cell-based, mouse
Method: as §1
A unique proteomic experiment was carried out with five biological replicates per sample (m-MDSC, g-MDSC and TAM). Cells were homogenized in a lysis buffer containing 7 M urea, 2 M thiourea 50 mM DTT. The homogenates were spun down at 14000 g for 1 h at 15 °C. Before proteomic analysis, protein extracts were diluted with Laemmli sample buffer in 100 μL and loaded into a 0.75 mm thick polyacrylamide gel with a 4% stacking gel casted over a 12.5% resolving gel. The run was stopped as soon as the front entered 3 mm into the resolving gel so that the whole proteome became concentrated in the stacking/resolving gel interface. Bands were stained with Coomassie Brilliant Blue, excised from the gel and protein enzymatic cleavage was carried out with trypsin (Promega; 1:20, w/w) at 37 °C for 16 h as previously described. Purification and concentration of peptides was performed using C18 Zip Tip Solid Phase Extraction (Millipore).
Peptide mixtures were separated by reverse phase chromatography using an UltiMate 3000 UHLPC System (Thermo Scientific) fitted with an Aurora packed emitter column (lonopticks, 25 cm×75 μm ID, 1.6 μm C18). Samples were first loaded for desalting and concentration into an Acclaim PepMap column (ThermoFisher, 0.5 cm×300 μm ID, 5 μm C18) packed with the same chemistry as the separating column. Mobile phases were 100% water 0.1% formic acid (FA) (buffer A) and 100% Acetonitrile 0.1% FA (buffer B). Column gradient was developed in a 120 min two step gradient from 5% B to 20% B in 90 min and 20% B to 32% B in 30 min. Column was equilibrated in 95% B for 10 min and 5% B for 20 min. During the whole process, the precolumn was in line with the column and the flow maintained all along the gradient at 300 nl/min. The column temperature was maintained at 40 °C using an integrated column oven (PRSO-V2, Sonation, Biberach, Germany) and interfaced online with the Orbitrap Exploris 480 MS. Spray voltage were set to 2 kV, funnel RF level at 40, and heated capillary temperature at 300 °C. For DDA experiments full MS resolutions were set to […] at m/z 200 and full MS AGC target was set to Standard with an IT mode Auto. Mass range was set to 375-1500. AGC target value for fragment spectra was set to Standard with a resolution of 15,000 and 3 seconds for cycle time. The intensity threshold was kept at 8E3. Isolation width was set at 1.4 m/z. Normalized collision energy was set at 30%. All data were acquired in centroid mode using positive polarity and peptide match was set to off, and isotope exclusion was on.
Raw files were processed with MaxQuant v1.6.17.0 using the integrated Andromeda Search engine. All data were searched against a target/decoy version of the mouse Uniprot Reference Proteome with March 2021 release. First search peptide tolerance was set to 20 ppm, main search peptide tolerance was set to 4.5 ppm. Fragment mass tolerance was set to 20 ppm. Trypsin was specified as enzyme, […] carbamidomethylation of cysteine was specified as fixed modification and peptide N-terminal acetylation, oxidation of methionine, deamidation of asparagine and glutamine and pyro-glutamate formation from glutamine and glutamate were considered variable modifications with a total of two variable modifications per peptide. […]

[3] = test system: myeloid cells from NSCLC patients; assay: myeloid cells from NSCLC patients treated ex vivo, flow cytometry (FIG. 6a); assay type: cell-based, human
Method: as §2, §3
Twenty-one patients diagnosed with locally advanced or metastatic NSCLC treated with the immune checkpoint inhibitors (ICI) pembrolizumab (anti-PD-1) were recruited for the study. The characteristics of the cohort under study have been described before, and this observational study was approved by the Ethics Committee of Clinical Investigations at the University Hospital of Navarre (reference number: PI_2020/115). 11 of the patients were chemoresistant. Blood samples from non-small cell lung cancer (NSCLC) patients were collected prior to treatment and before administration of each immunotherapy cycle.
PBMCs were isolated as described and grown in vitro for 24 h in TEXCMACs medium (Miltenyi Biotec). Myeloid cells were obtained by adherence to plastic for 24 h. Then, 50,000 myeloid cells were seeded per well with 50 µM oleuropein in 96-well plates and incubated for seven days.

[4] = test system: TAMs; assay: morphology of ex vivo TAM cultures, phase contrast micrographs (FIG. 2a); assay type: cell-based, mouse; settings: TAMs treated with oleuropein
Method: as §1

[5] = to elenolic acid and glucose; cited from earlier work
[6] = oleuropein 50 μM, seven days, N=21 patients

C/C=C1/[C@H](O[C@@H]2O[C@H](CO)[C@@H](O)[C@H](O)[C@H]2O)OC=C(C(=O)OC)[C@H]1CC(=O)OCCc1ccc(O)c(O)c1 [oleuropein]
polarization of MDSCs [1]: polarized MDSCs and TAMs into activated myeloid cells | IL-12 ([1]; MDSCs): significant increase | AMPK signaling ([2]; IPA, g-MDSC): upregulation | EIF2 signalling ([2]; IPA, g-MDSC): downmodulated | NET signaling ([2]; IPA, g-MDSC): upregulation | estrogen receptor signalling ([2]; IPA, g-MDSC): downmodulated | fatty acid beta-oxidation ([2]; IPA, g-MDSC): activated | fmIP signaling ([2]; IPA, g-MDSC): upregulation | granzyme A signalling ([2]; IPA, g-MDSC): downmodulated | mTOR signaling ([2]; IPA, g-MDSC): upregulation | phospholipids ([2]; IPA, g-MDSC): decrease | upstream regulator E2f3 ([2]; IPA, g-MDSC): decrease | upstream regulator Eif6 ([2]; IPA, g-MDSC): increase | upstream regulator Stat4 ([2]; IPA, g-MDSC): inhibited | upstream regulator Tbk1 ([2]; IPA, g-MDSC): inhibited | cellular programming / proteome of g-MDSC ([2]; g-MDSC treated with oleuropein): acquiring an entirely different proteome | differentiation of myeloid cells to g-MDSC ([2]; g-MDSC treated with oleuropein): prevented | activation of myeloid cells of subjects suffering lung cancer ([3]; including anti-PD-1-based therapy resistance): induced the activation of myeloid cells | CD11b+ cells [3, 6]: increase | expression of CD11c+HLA-DR [3, 6]: elevation | expression of CD14+HLA-DR [3, 6]: elevation | expression of CD115+HLA-DR [3, 6]: elevation | morphology / phenotype [4]: acquired an M1-like phenotype | decomposition by acid or enzymic hydrolysis [5]: decomposes easily
